Measurements published in ChEMBL document CHEMBL1128106, “Oligonucleotide duplex stability controlled by the 7-substituents of 7-deazaguanine bases” (Bioorg Med Chem Lett, 1995).

Tests used:
[1] = Half life (t) of enzymatic phosphodiester hydrolysis of compound towards calf spleen (CS-PDE) at a concentration of 20 microg; type: ADME, Bos taurus; settings: cattle, calf spleen phosphodiesterase (CS-PDE)
[2] = Half life (t) of enzymatic phosphodiester hydrolysis of compound towards snake venom (SV-PDE) at a concentration of 4 microg; type: ADME; settings: serpentes, snake venom phosphodiesterase (SV-PDE)

SMILES	half-life [1]	half-life [2]
COP(=O)(OC[C@H]1O[C@@H](n2ccc(N)nc2=O)C[C@@H]1OP(=O)(O)OC[C@H]1O[C@@H](n2cc(I)c3c(=O)[nH]c(N)nc32)C[C@@H]1OP(=O)(O)OC[C@H]1O[C@@H](n2ccc(N)nc2=O)C[C@@H]1O)O[C@H]1C[C@H](n2cc(I)c3c(=O)[nH]c(N)nc32)O[C@@H]1COP(=O)(O)O[C@H]1C[C@H](n2ccc(N)nc2=O)O[C@@H]1COP(=O)(O)O[C@H]1C[C@H](n2cc(I)c3c(=O)[nH]c(N)nc32)O[C@@H]1COP(=O)(O)O[C@H]1C[C@H](n2ccc(N)nc2=O)O[C@@H]1COP(=O)(O)O[C@H]1C[C@H](n2cc(I)c3c(=O)[nH]c(N)nc32)O[C@@H]1COP(=O)(O)O (some centres not stated)	> 1200 min	17 min
Nc1ccn([C@H]2C[C@H](OP(=O)(O)OC[C@H]3O[C@@H](n4cnc5c(=O)[nH]c(N)nc54)C[C@@H]3OP(=O)(O)OC[C@H]3O[C@@H](n4ccc(N)nc4=O)C[C@@H]3OP(=O)(O)OC[C@H]3O[C@@H](n4cnc5c(=O)[nH]c(N)nc54)C[C@@H]3OP(=O)(O)OC[C@H]3O[C@@H](n4ccc(N)nc4=O)C[C@@H]3OP(=O)(O)OC[C@H]3O[C@@H](n4cnc5c(=O)[nH]c(N)nc54)CC3OP(=O)(O)OC[C@H]3O[C@@H](n4ccc(N)nc4=O)C[C@@H]3O)[C@@H](COP(=O)(O)O[C@H]3C[C@H](n4cnc5c(=O)[nH]c(N)nc54)O[C@@H]3COP(=O)(O)O)O2)c(=O)n1 (some centres not stated)	82 min	2.5 min
COP(=O)(OC[C@H]1O[C@@H](n2ccc(N)nc2=O)C[C@@H]1OP(=O)(O)OC[C@H]1O[C@@H](n2cc(C)c3c(=O)[nH]c(N)nc32)C[C@@H]1OP(=O)(O)OC[C@H]1O[C@@H](n2ccc(N)nc2=O)C[C@@H]1O)O[C@H]1C[C@H](n2cc(C)c3c(=O)[nH]c(N)nc32)O[C@@H]1COP(=O)(O)O[C@H]1C[C@H](n2ccc(N)nc2=O)O[C@@H]1COP(=O)(O)O[C@H]1C[C@H](n2cc(C)c3c(=O)[nH]c(N)nc32)O[C@@H]1COP(=O)(O)O[C@H]1C[C@H](n2ccc(N)nc2=O)O[C@@H]1COP(=O)(O)O[C@H]1C[C@H](n2cc(C)c3c(=O)[nH]c(N)nc32)O[C@@H]1COP(=O)(O)O (some centres not stated)	> 1200 min	16 min
COP(=O)(OC[C@H]1O[C@@H](n2ccc(N)nc2=O)C[C@@H]1OP(=O)(O)OC[C@H]1O[C@@H](n2ccc3c(=O)[nH]c(N)nc32)C[C@@H]1OP(=O)(O)OC[C@H]1O[C@@H](n2ccc(N)nc2=O)C[C@@H]1O)O[C@H]1C[C@H](n2ccc3c(=O)[nH]c(N)nc32)O[C@@H]1COP(=O)(O)O[C@H]1C[C@H](n2ccc(N)nc2=O)O[C@@H]1COP(=O)(O)O[C@H]1C[C@H](n2ccc3c(=O)[nH]c(N)nc32)O[C@@H]1COP(=O)(O)O[C@H]1C[C@H](n2ccc(N)nc2=O)O[C@@H]1COP(=O)(O)O[C@H]1C[C@H](n2ccc3c(=O)[nH]c(N)nc32)O[C@@H]1COP(=O)(O)O (some centres not stated)	~1000 min	1.3 min
Nc1nc2c(ncn2[C@H]2C[C@H](O)[C@@H](COP(=O)(O)O[C@H]3C[C@H](n4cc(I)c5c(=O)[nH]c(N)nc54)O[C@@H]3COP(=O)(O)O[C@H]3C[C@H](n4cc(I)c5c(=O)[nH]c(N)nc54)O[C@@H]3COP(=O)(O)O[C@H]3C[C@H](n4cc(I)c5c(=O)[nH]c(N)nc54)O[C@@H]3COP(=O)(O)O[C@H]3C[C@H](n4cc(I)c5c(=O)[nH]c(N)nc54)O[C@@H]3COP(=O)(O)O[C@H]3C[C@H](n4cc(I)c5c(=O)[nH]c(N)nc54)O[C@@H]3COP(=O)(O)O)O2)c(=O)[nH]1	> 1200 min	26 min
Nc1nc2c(ccn2[C@H]2C[C@H](OP(=O)(O)OC[C@H]3O[C@@H](n4ccc5c(=O)[nH]c(N)nc54)C[C@@H]3OP(=O)(O)OC[C@H]3O[C@@H](n4ccc5c(=O)[nH]c(N)nc54)C[C@@H]3OP(=O)(O)OC[C@H]3O[C@@H](n4ccc5c(=O)[nH]c(N)nc54)C[C@@H]3OP(=O)(O)OC[C@H]3O[C@@H](n4ccc5c(=O)[nH]c(N)nc54)C[C@@H]3OP(=O)(O)OC[C@H]3O[C@@H](n4cnc5c(=O)[nH]c(N)nc54)C[C@@H]3O)[C@@H](COP(=O)(O)O)O2)c(=O)[nH]1	> 1200 min	2.5 min
